In PubChem BioAssay (NCI):
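Test compounds were applied to cells in 96-well plates for 48 hours at 5 doses. TGI: total growth inhibition.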

Legend:
Assay in all cases: inhibition of tumour cell growth, NCI panel, 48 h
HCT-15 colon = tested on: HCT-15 colon
NCI-H522 lung = tested on: NCI-H522 lung
HOP-18 NSCLC = tested on: HOP-18 NSCLC
RXF 393 renal = tested on: RXF 393 renal
RPMI-8226 leukemia = tested on: RPMI-8226 leukemia
KM12 colon = tested on: KM12 colon
EKVX NSCLC = tested on: EKVX NSCLC
SF-295 CNS = tested on: SF-295 CNS
OVCAR-4 ovarian = tested on: OVCAR-4 ovarian
SF-539 CNS = tested on: SF-539 CNS
SK-MEL-5 melanoma = tested on: SK-MEL-5 melanoma
U251 CNS = tested on: U251 CNS
HL-60(TB) leukemia = tested on: HL-60(TB) leukemia
UACC-62 melanoma = tested on: UACC-62 melanoma
K-562 leukemia = tested on: K-562 leukemia
ACHN renal = tested on: ACHN renal
UACC-257 melanoma = tested on: UACC-257 melanoma
LXFL 529 NSCLC = tested on: LXFL 529 NSCLC
MOLT-4 leukemia = tested on: MOLT-4 leukemia
HCT-116 colon = tested on: HCT-116 colon
KM20L2 colon = tested on: KM20L2 colon
OVCAR-5 ovarian = tested on: OVCAR-5 ovarian
HOP-92 NSCLC = tested on: HOP-92 NSCLC
A498 renal = tested on: A498 renal
NCI-H23 lung = tested on: NCI-H23 lung
SN12C renal = tested on: SN12C renal
CCRF-CEM leukemia = tested on: CCRF-CEM leukemia
LOX IMVI melanoma = tested on: LOX IMVI melanoma
SNB-19 CNS = tested on: SNB-19 CNS
COLO 205 colon = tested on: COLO 205 colon
SK-MEL-28 melanoma = tested on: SK-MEL-28 melanoma
DMS 273 small cell lung = tested on: DMS 273 small cell lung
SW-620 colon = tested on: SW-620 colon
NCI-H460 lung = tested on: NCI-H460 lung
SR leukemia = tested on: SR leukemia
SF-268 CNS = tested on: SF-268 CNS
HT29 colon = tested on: HT29 colon
HOP-62 NSCLC = tested on: HOP-62 NSCLC
OVCAR-8 ovarian = tested on: OVCAR-8 ovarian
SNB-75 CNS = tested on: SNB-75 CNS
IGROV1 ovarian = tested on: IGROV1 ovarian
M14 melanoma = tested on: M14 melanoma
NCI-H226 lung = tested on: NCI-H226 lung
A549 NSCLC = tested on: A549 NSCLC
DMS 114 small cell lung = tested on: DMS 114 small cell lung
SNB-78 CNS = tested on: SNB-78 CNS
DLD-1 colon = tested on: DLD-1 colon
786-0 renal = tested on: 786-0 renal

Measured: TGI

COC1[C@@H](OC(C)=O)[C@@H](NC(=O)C(Cl)(Cl)Cl)C(I)[C@@H](N2C(=O)c3ccccc3C2=O)[C@H]1OC (stereo partly drawn)
> 100 µM: HCT-15 colon | NCI-H522 lung | HOP-18 NSCLC | RXF 393 renal | RPMI-8226 leukemia | KM12 colon | EKVX NSCLC | SF-295 CNS | OVCAR-4 ovarian | SF-539 CNS | SK-MEL-5 melanoma | U251 CNS | HL-60(TB) leukemia | UACC-62 melanoma | K-562 leukemia | ACHN renal | UACC-257 melanoma | LXFL 529 NSCLC | MOLT-4 leukemia | HCT-116 colon | KM20L2 colon | OVCAR-5 ovarian | HOP-92 NSCLC | A498 renal | NCI-H23 lung | SN12C renal | CCRF-CEM leukemia | LOX IMVI melanoma | SNB-19 CNS | COLO 205 colon | SK-MEL-28 melanoma | DMS 273 small cell lung | SW-620 colon | NCI-H460 lung | SR leukemia | SF-268 CNS | HT29 colon | HOP-62 NSCLC | OVCAR-8 ovarian | SNB-75 CNS | IGROV1 ovarian | M14 melanoma | NCI-H226 lung | A549 NSCLC | DMS 114 small cell lung | SNB-78 CNS | DLD-1 colon | 786-0 renal
